Experimental data published in patent publication US20220233684A1, “COMBINATION OF HEPATITIS B VIRUS (HBV) VACCINES AND PD-L1 INHIBITORS” (Janssen Sciences Ireland Unlimited Company, priority 2019, published 2022).

Molecular target: PD-1/PD-L1 (Homo sapiens, UniProt Q9NZQ7)
Test: PD-1/PD-L1 biochemical protein-protein interaction assay (ALPHA)
Assay type: binding
Conditions: 5 nM His tagged PD-L1, 5 nM biotinylated PD-1, 2 hours at 25° C.; read-out: ALPHA-LISA IC50
Method: Compounds were tested in protein-protein interaction assay to determine if they can specifically block the interaction between the extracellular domains of PD-1/PD-L1. Binding of the protein pairs is measured using a bead based amplified luminescent proximity homogeneous assay (ALPHA) platform. Binding of each protein pair results in proximity of the donor and acceptor beads which leads to an increase in ALPHA signal. Assays are performed in 50 mM Tris (pH 7.4), 0.0015% Triton X-100, 0.1% BSA. Final protein concentration in the assays were 5 nM (His tagged PD-L1), 5 nM (biotinylated PD-1), 10 μg/ml ALPHA assay acceptor beads, 10 μg/ml ALPHA assay donor beads. After an assay reaction time of 2 hours at 25° C., binding was measured. The specificity of the binding was determined by testing the compounds in an assay with an irrelevant protein that is both His tagged and biotinylated. The final protein concentration used in the assay was 5 nM, 10 μg/ml ALPHA assay acceptor beads, 10 μg/ml ALPHA assay donor beads. After an assay reaction time of 2 hours at 25° C., binding was measured. IC50 values were calculated from the fit of the dose-response curves to a four-parameter equation.
The specificity of the binding was determined by testing the compounds in an assay with an irrelevant protein that is both His tagged and biotinylated (ErbB3/her3). The final protein concentration used in the assay was 5 nM, 10 μg/mL ALPHA assay acceptor beads, 10 μg/mL ALPHA assay donor beads. After an assay reaction time of 2 hours at 25° C., binding was measured. IC50 values were calculated from the fit of the dose-response curves to a four-parameter equation.

Chain of PD-1/PD-L1 (Q9NZQ7 19-238 limits assumed): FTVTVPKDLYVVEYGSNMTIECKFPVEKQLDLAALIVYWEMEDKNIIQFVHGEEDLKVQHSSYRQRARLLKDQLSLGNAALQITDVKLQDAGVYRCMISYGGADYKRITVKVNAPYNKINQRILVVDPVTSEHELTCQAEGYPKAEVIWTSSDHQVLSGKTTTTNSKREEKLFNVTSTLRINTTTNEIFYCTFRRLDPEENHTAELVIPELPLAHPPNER

IC50 [nM] | SMILES
3600 | CC(C)c1cc(CN[C@H](CO)C(=O)O)c(OCc2cccc(C#N)c2)cc1OCc1cccn(-c2ccc3c(c2)OCCO3)c1=O [Compound 204]
1100 | Cc1cc(CN[C@H](CO)C(=O)O)c(OCc2cccc(C#N)c2)cc1OCc1cccn(-c2ccc3c(c2)OCCO3)c1=O [Compound 7, (2-((3-cyanobenzyl)oxy)-4-((1-(2,3-dihydrobenzo[b][1,4]dioxin-6-yl)-2-oxo-1,2-dihydropyridin-3-yl)methoxy)-5-methylbenzyl)-D-serine]
3000 | Cc1cc(CN[C@H](CO)C(=O)O)c(OCc2cccc(Cl)c2)cc1OCc1cccn(-c2ccc3c(c2)OCCO3)c1=O [Compound 101, (2-((3-chlorobenzyl)oxy)-4-((1-(2,3-dihydrobenzo[b][1,4]dioxin-6-yl)-2-oxo-1,2-dihydropyridin-3-yl)methoxy)-5-methylbenzyl)-D-serine]
3900 | Cc1cc(CN[C@@H](C)C(=O)O)c(OCc2cccc(C#N)c2)cc1OCc1cccn(-c2ccc3c(c2)OCCO3)c1=O [Compound 11]
300 | N#Cc1cccc(COc2cc(OCc3cccn(-c4ccc5c(c4)OCCO5)c3=O)c(Cl)cc2CN[C@H](CO)C(=O)O)c1 [Compound 202, (5-chloro-2-((3-cyanobenzyl)oxy)-4-((1-(2,3-dihydrobenzo[b][1,4]dioxin-6-yl)-2-oxo-1,2-dihydropyridin-3-yl)methoxy)benzyl)-D-serine]
2700 | CCc1cc(CN[C@H](CO)C(=O)O)c(OCc2cccc(C#N)c2)cc1OCc1cccn(-c2ccc3c(c2)OCCO3)c1=O [Compound 203]
1200 | Cc1cc(CN[C@@H](CO)C(=O)O)c(OCc2cccc(C#N)c2)cc1OCc1cccn(-c2ccc3c(c2)OCCO3)c1=O [Compound 10, (2-((3-cyanobenzyl)oxy)-4-((1-(2,3-dihydrobenzo[b][1,4]dioxin-6-yl)-2-oxo-1,2-dihydropyridin-3-yl)methoxy)-5-methylbenzyl)-L-serine]

Second part, the molecule before the results:

SMILES | IC50 [nM]
N#Cc1cncc(COc2cc(OCc3cccn(-c4ccc5c(c4)OCCO5)c3=O)c(Cl)cc2CN[C@H](CO)C(=O)O)c1 [Compound 207, (5-chloro-2-((5-cyanopyridin-3-yl)methoxy)-4-((1-(2,3-dihydrobenzo[b][1,4]dioxin-6-yl)-2-oxo-1,2-dihydropyridin-3-yl)methoxy)benzyl)-D-serine] | 320
N#Cc1cccc(COc2cc(OCc3cccn(-c4ccc5c(c4)OCCO5)c3=O)c(Cl)cc2CNC[C@@H]2CCC(=O)N2)c1 [Compound 205, (S)-3-((4-chloro-5-((1-(2,3-dihydrobenzo[b][1,4]dioxin-6-yl)-2-oxo-1,2-dihydropyridin-3-yl)methoxy)-2-((((5-oxopyrrolidin-2-yl)methyl)amino)methyl)phenoxy)methyl)benzonitrile] | 360
Cc1cc(CN(C)[C@@H](CO)C(=O)O)c(OCc2cccc(C#N)c2)cc1OCc1cccn(-c2ccc3c(c2)OCCO3)c1=O [Compound 12] | 1600
O=C(O)[C@@H](CO)NCc1cc(Cl)c(OCc2cccn(-c3ccc4c(c3)OCCO4)c2=O)cc1OCc1cncc(-n2ccnn2)c1 [Compound 209] | 550
Cc1cc(CN2C[C@H](O)C[C@@H]2C(=O)O)c(OCc2cccc(C#N)c2)cc1OCc1cccn(-c2ccc3c(c2)OCCO3)c1=O [Compound 8, (2R,4R)-1-(2-((3-cyanobenzyl)oxy)-4-((1-(2,3-dihydrobenzo[b][1,4]dioxin-6-yl)-2-oxo-1,2-dihydropyridin-3-yl)methoxy)-5-methylbenzyl)-4-hydroxypyrrolidine-2-carboxylic acid] | 3400
Cc1cc(CN[C@H](CO)C(=O)O)c(OCc2cccnc2)cc1OCc1cccn(-c2ccc3c(c2)OCCO3)c1=O [Compound 103, (4-((1-(2,3-dihydrobenzo[b][1,4]dioxin-6-yl)-2-oxo-1,2-dihydropyridin-3-yl)methoxy)-5-methyl-2-(pyridin-3-ylmethoxy)benzyl)-D-serine] | 1000
Cc1cc(CN[C@](C)(CO)C(=O)O)c(OCc2cccc(C#N)c2)cc1OCc1cccn(-c2ccc3c(c2)OCCO3)c1=O [Compound 9, (R)-2-((2-((3-cyanobenzyl)oxy)-4-((1-(2,3-dihydrobenzo[b][1,4]dioxin-6-yl)-2-oxo-1,2-dihydropyridin-3-yl)methoxy)-5-methylbenzyl)amino)-3-hydroxy-2-methylpropanoic acid] | 1200
